Laboratory results as given in US11993599B2, “Therapeutic compounds” (Genentech, Inc., priority 2021, dated 2024).

Key:
BRG1 = biological target: T1, BRG1 (Homo sapiens, UniProt P51532); experiment: Immunofluorescence assay for BRG1 degradation in SW1573 cells; type: cell-based; conditions: 20 hours incubation; for DC50: immunofluorescence mean nuclear signal, read-out: BRG1 IF Degradation IC50; for Dmax: SW1573, 20 h, read-out: BRG1 IF Degradation Sinf (%)
T1 construct: either BRM primary antibody (Cell signaling Cat #11966) or BRG primary antibody (Abcam, ab 110641); endogenous in cells; host or cells: SW1573
T1 sequence (P51532 whole entry): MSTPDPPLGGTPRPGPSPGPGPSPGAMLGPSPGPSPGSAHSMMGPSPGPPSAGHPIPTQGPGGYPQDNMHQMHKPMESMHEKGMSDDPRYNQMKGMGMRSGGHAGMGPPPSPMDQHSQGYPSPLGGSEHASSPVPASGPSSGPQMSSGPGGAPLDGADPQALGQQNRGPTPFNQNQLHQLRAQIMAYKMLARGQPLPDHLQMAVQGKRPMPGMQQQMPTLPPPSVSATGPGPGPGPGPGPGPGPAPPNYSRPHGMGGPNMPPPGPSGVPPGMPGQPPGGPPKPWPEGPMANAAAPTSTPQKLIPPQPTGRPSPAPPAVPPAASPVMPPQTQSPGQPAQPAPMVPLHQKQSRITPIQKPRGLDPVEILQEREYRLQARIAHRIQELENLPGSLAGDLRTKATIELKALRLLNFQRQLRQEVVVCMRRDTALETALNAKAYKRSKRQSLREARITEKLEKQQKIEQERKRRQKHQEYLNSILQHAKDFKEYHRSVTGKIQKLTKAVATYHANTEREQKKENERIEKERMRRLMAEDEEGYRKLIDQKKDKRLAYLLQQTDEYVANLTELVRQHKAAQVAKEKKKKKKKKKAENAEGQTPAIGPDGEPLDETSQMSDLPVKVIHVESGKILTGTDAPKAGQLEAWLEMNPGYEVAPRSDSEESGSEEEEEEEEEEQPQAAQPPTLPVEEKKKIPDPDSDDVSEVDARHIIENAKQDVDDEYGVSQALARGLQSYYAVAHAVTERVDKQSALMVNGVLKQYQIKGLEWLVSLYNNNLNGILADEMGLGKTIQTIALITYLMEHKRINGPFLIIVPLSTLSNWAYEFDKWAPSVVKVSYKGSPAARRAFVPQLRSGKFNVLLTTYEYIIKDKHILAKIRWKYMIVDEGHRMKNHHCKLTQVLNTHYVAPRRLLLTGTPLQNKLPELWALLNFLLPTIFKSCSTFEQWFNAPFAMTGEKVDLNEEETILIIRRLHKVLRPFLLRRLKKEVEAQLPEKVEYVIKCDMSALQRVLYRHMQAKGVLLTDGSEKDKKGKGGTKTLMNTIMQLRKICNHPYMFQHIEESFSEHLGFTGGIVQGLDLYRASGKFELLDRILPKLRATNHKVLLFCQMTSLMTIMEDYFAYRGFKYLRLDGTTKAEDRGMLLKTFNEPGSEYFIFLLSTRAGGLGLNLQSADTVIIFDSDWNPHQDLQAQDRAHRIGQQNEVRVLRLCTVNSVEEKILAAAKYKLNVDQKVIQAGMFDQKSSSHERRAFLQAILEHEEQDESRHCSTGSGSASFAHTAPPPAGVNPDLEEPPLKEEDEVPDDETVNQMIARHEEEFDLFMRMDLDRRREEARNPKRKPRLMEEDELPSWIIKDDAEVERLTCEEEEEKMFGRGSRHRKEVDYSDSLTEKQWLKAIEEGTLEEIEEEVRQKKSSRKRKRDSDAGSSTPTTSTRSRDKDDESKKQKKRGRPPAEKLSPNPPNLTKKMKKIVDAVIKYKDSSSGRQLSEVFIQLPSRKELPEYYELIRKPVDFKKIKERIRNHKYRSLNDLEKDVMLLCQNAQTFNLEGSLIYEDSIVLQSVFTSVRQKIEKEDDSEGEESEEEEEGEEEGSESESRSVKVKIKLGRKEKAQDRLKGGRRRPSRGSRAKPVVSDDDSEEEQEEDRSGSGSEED
In short: (§1)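 After a 20 h incubation with test compound, SW1573 cells are fixed and stained for BRM or BRG1 plus Hoechst. Per-cell mean nuclear intensity, referenced to a degrader control, is fit concentration-dependently with unconstrained maximum for Dmax.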

BRM = BRM (Homo sapiens, UniProt P51531); experiment: Immunofluorescence assay for BRM degradation in SW1573 cells; type: cell-based; parameters: treated overnight at 4° C. with either BRM primary antibody (Cell signaling Cat #11966) or BRG primary antibody; endogenous in cells; host or cells: SW1573; conditions: 20 hours incubation; for DC50: immunofluorescence mean nuclear signal, read-out: BRM IF Degradation IC50; for BRM IF Degradation Sinf (%): normalized to a known degrader control
BRM, sequence (P51531 whole entry): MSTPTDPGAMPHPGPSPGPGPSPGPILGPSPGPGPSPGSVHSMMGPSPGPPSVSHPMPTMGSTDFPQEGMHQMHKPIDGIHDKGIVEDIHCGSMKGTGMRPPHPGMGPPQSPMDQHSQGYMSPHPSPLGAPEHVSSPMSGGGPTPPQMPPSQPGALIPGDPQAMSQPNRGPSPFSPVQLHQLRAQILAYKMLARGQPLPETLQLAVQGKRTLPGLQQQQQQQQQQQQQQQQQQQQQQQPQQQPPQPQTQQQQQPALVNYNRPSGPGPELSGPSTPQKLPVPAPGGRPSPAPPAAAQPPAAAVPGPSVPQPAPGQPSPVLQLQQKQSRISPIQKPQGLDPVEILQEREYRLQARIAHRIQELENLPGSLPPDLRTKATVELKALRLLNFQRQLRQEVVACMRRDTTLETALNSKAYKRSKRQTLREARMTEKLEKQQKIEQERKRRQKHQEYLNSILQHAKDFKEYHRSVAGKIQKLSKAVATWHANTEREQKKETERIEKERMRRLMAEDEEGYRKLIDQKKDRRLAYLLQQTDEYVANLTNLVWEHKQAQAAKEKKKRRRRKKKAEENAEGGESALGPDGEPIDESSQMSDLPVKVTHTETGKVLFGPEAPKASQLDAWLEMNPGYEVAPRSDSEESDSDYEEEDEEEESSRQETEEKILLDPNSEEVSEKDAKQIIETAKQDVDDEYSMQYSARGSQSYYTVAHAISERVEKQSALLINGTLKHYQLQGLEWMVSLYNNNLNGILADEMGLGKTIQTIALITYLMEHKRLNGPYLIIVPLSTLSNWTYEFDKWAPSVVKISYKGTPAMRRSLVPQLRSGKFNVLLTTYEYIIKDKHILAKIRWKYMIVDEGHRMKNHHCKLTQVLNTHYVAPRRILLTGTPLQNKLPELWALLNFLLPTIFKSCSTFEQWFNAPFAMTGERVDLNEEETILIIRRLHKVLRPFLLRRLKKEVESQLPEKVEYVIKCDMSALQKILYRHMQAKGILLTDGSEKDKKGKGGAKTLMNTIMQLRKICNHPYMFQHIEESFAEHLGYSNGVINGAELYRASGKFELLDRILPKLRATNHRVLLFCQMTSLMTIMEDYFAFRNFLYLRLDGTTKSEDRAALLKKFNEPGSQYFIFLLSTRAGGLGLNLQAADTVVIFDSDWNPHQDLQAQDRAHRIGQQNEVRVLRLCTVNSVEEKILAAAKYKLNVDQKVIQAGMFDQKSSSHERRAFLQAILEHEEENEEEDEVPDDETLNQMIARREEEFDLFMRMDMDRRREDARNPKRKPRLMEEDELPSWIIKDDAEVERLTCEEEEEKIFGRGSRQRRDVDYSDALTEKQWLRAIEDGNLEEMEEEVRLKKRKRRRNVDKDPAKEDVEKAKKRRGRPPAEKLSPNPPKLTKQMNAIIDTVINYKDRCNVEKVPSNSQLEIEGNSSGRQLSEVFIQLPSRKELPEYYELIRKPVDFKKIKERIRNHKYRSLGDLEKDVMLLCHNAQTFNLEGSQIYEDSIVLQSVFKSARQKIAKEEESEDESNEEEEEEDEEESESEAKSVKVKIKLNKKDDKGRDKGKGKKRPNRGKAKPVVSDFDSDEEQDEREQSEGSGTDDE
In short: as §1

[1] = normalized to a known degrader control

Row | Structure (SMILES) | DC50 (BRG1) [nM] | Dmax (BRG1; [1]) [%] | DC50 (BRM) [nM] | BRM IF Degradation Sinf (%) (BRM) | BRG1 IF Degradation Sinf (%) (BRG1; [1])
1 | Nc1nnc(-c2ccccc2O)cc1N1CC2CCC(C1)N2c1ccnc(C#CCN2CCC23CCCOC3)c1 (centres unmarked) [Compound 100, 2-[6-amino-5-[8-[2-[3-(8-oxa-1-azaspiro[3.5]nonan-1-yl)prop-1-ynyl]-4-pyridyl]-3,8-diazabicyclo[3.2.1]octan-3-yl]pyridazin-3-yl]phenol] | < 10 | 30 to 70 | < 10 | E (E indicates −30%-−70%) | 
2 | Nc1nnc(-c2ccccc2O)cc1N1CC2CCC(C1)N2c1ccnc(C#CCN2CC3(C2)CC3(F)F)c1 [Compound 151, 2-[6-amino-5-[8-[2-[3-(2,2-difluoro-5-azaspiro[2.3]hexan-5-yl)prop-1-ynyl]-4-pyridyl]-3,8-diazabicyclo[3.2.1]octan-3-yl]pyridazin-3-yl]phenol] | < 10 | 0 to 30 | < 10 | E (E indicates −30%-−70%) | 
3 | CC1(C)CCN1CC#Cc1cc(N2C3CCC2CN(c2cc(-c4ccccc4O)nnc2N)C3)ccn1 [Compound 187, 2-[6-amino-5-[8-[2-[3-(2,2-dimethylazetidin-1-yl)prop-1-ynyl]-4-pyridyl]-3,8-diazabicyclo[3.2.1]octan-3-yl]pyridazin-3-yl]phenol] | < 10 | 30 to 70 | < 10 | E (E indicates −30%-−70%) | 
4 | Nc1nnc(-c2ccccc2O)cc1N1CC2CCC(C1)N2c1ccnc(C#CCN2CCC[C@@H]3CC[C@@H]32)c1 [Compound 102, 2-[6-amino-5-[8-[2-[3-[(1S,6R)-2-azabicyclo[4.2.0]octan-2-yl]prop-1-ynyl]-4-pyridyl]-3,8-diazabicyclo[3.2.1]octan-3-yl]pyridazin-3-yl]phenol] | < 10 | 30 to 70 | < 10 | E (E indicates −30%-−70%) | 
5 | Nc1nnc(-c2ccccc2O)cc1N1CC2CCC(C1)N2c1ccnc(C#CCN2CC3CC3(CO)C2)c1 (centres unmarked) [Compound 137, 2-[6-amino-5-[8-[2-[3-[1-(hydroxymethyl)-3-azabicyclo[3.1.0]hexan-3-yl]prop-1-ynyl]-4-pyridyl]-3,8-diazabicyclo[3.2.1]octan-3-yl]pyridazin-3-yl]phenol] | < 10 | 30 to 70 | < 10 | E (E indicates −30%-−70%) | 
6 | Nc1nnc(-c2ccccc2O)cc1N1CC2CCC(C1)N2c1ccnc(C#CCN2C[C@H]3CCCC[C@H]3C2)c1 [Compound 60, 2-[5-[8-[2-[3-[(3aS,7aR)-1,3,3a,4,5,6,7,7a-octahydroisoindol-2-yl]prop-1-ynyl]-4-pyridyl]-3,8-diazabicyclo[3.2.1]octan-3-yl]-6-amino-pyridazin-3-yl]phenol] | < 10 | 30 to 70 | < 10 | E (E indicates −30%-−70%) | 
7 | Nc1nnc(-c2ccccc2O)cc1N1CC2CCC(C1)N2c1ccnc(C#CCN2CCCC(O)CC2)c1 (centres unmarked) [Compound 191, 1-[3-[4-[3-[3-amino-6-(2-hydroxyphenyl)pyridazin-4-yl]-3,8-diazabicyclo[3.2.1]octan-8-yl]-2-pyridyl]prop-2-ynyl]azepan-4-ol] | < 10 | 71 to 120 | < 10 | F (F indicates −71%-−120%) | 
8 | CNC(=O)C1COCCN1CC#Cc1cc(N2C3CCC2CN(c2cc(-c4ccccc4O)nnc2N)C3)ccn1 (centres unmarked) [Compound 89, 4-[3-[4-[3-[3-amino-6-(2-hydroxyphenyl)pyridazin-4-yl]-3,8-diazabicyclo[3.2.1]octan-8-yl]-2-pyridyl]prop-2-ynyl]-N-methyl-morpholine-3-carboxamide] | > 100 |  | 10 to 100 | E (E indicates −30%-−70%) | 
9 | Nc1nnc(-c2ccccc2O)cc1N1CC2CCC(C1)N2c1ccnc(C#CCN2CC3(C2)C(CF)CCS3(=O)=O)c1 (centres unmarked) [Compound 177, 2-[6-amino-5-[8-[2-[3-[8-(fluoromethyl)-5,5-dioxo-5lambda6-thia-2-azaspiro[3.4]octan-2-yl]prop-1-ynyl]-4-pyridyl]-3,8-diazabicyclo[3.2.1]octan-3-yl]pyridazin-3-yl]phenol] | 10 to 100 | 30 to 70 | 10 to 100 | E (E indicates −30%-−70%) | 
10 | Nc1nnc(-c2ccccc2O)cc1N1CC2CCC(C1)N2c1ccnc(C#CCN2CCCCC(CO)C2)c1 (centres unmarked) [Compound 214, 2-[6-amino-5-[8-[2-[3-[3-(hydroxymethyl)azepan-1-yl]prop-1-ynyl]-4-pyridyl]-3,8-diazabicyclo[3.2.1]octan-3-yl]pyridazin-3-yl]phenol] | < 10 | 30 to 70 | < 10 | F (F indicates −71%-−120%) | 
11 | Nc1nnc(-c2ccccc2O)cc1N1CC2CCC(C1)N2c1ccnc(C#CCN2CCC3CCC2CC3)c1 [Compound 218, 2-[6-amino-5-[8-[2-[3-(2-azabicyclo[3.2.2]nonan-2-yl)prop-1-ynyl]-4-pyridyl]-3,8-diazabicyclo[3.2.1]octan-3-yl]pyridazin-3-yl]henol] | < 10 | 30 to 70 | < 10 | F (F indicates −71%-−120%) | 
12 | CC1CCCN(CC#Cc2cc(N3C4CCC3CN(c3cc(-c5ccccc5O)nnc3N)C4)ccn2)C1 (centres unmarked) [Compound 61, 2-[6-amino-5-[8-[2-[3-(3-methyl-1-piperidyl)prop-1-ynyl]-4-pyridyl]-3,8-diazabicyclo[3.2.1]octan-3-yl]pyridazin-3-yl]phenol] | < 10 | 30 to 70 | < 10 | E (E indicates −30%-−70%) | 
13 | Nc1nnc(-c2ccccc2O)cc1N1CC2CCC(C1)N2c1ccnc(C#CCN2CCCC(CO)C2)c1 (centres unmarked) [Compound 134, 2-[6-amino-5-[8-[2-[3-[3-(hydroxymethyl)-1-piperidyl]prop-1-ynyl]-4-pyridyl]-3,8-diazabicyclo[3.2.1]octan-3-yl]pyridazin-3-yl]phenol] | 10 to 100 | 30 to 70 | 10 to 100 | E (E indicates −30%-−70%) | 
14 | COC(=O)C1CCS(=O)(=O)C12CN(CC#Cc1cc(N3C4CCC3CN(c3cc(-c5ccccc5O)nnc3N)C4)ccn1)C2 (centres unmarked) [Compound 183, methyl 2-[3-[4-[3-[3-amino-6-(2-hydroxyphenyl)pyridazin-4-yl]-3,8-diazabicyclo[3.2.1]octan-8-yl]-2-pyridyl]prop-2-ynyl]-5,5-dioxo-51ambda6-thia-2-azaspiro[3.4]octane-8-carboxylate] | > 100 |  | > 100 | E (E indicates −30%-−70%) | 
15 | Nc1nnc(-c2ccccc2O)cc1N1CC2CCC(C1)N2c1ccnc(C#CCN2CC(O)C2)c1 [Compound 168, 1-[3-[4-[3-[3-amino-6-(2-hydroxyphenyl)pyridazin-4-yl]-3,8-diazabicyclo[3.2.1]octan-8-yl]-2-pyridyl]prop-2-ynyl]azetidin-3-ol] | 10 to 100 |  | 10 to 100 | F (F indicates −71%-−120%) | E (E indicates −30%-−70%)
16 | Nc1nnc(-c2ccccc2O)cc1N1CC2CCC(C1)N2c1ccnc(C#CCN2CCC3CC2CO3)c1 (centres unmarked) [Compound 104, 2-[6-amino-5-[8-[2-[3-(6-oxa-2-azabicyclo[3.2.1]octan-2-yl)prop-1-ynyl]-4-pyridyl]-3,8-diazabicyclo[3.2.1]octan-3-yl]pyridazin-3-yl]phenol] | < 10 | 0 to 30 | < 10 | E (E indicates −30%-−70%) | 
